Measurements from patent publication US20250361210A1, “3,4-DIHYDROQUINOLIN-2(1H)-ONE COMPOUND” (Kissei Pharmaceutical Co., Ltd., priority 2022, published 2025).

Biological target: T1, human TSHR (Homo sapiens, UniProt P16473)
T1 construct: expressed in transfected cells
Experiment: Antagonist activity using TSH-induced cAMP production in human TSHR-stably expressing CHO cells
Assay type: cell-based
Details: human TSH 50 ng/mL
Protocol: Measurement of Antagonist Activity Using TSH-Induced cAMP Production in Human TSHR-Stably Expressing CHO Cells as an Indicator
The human TSHR gene sequence (reference number NM_000369.2) was inserted into the multicloning site of pcDNA3.1(+). The constructed plasmid vector was introduced into CHO cells using the lipofection method to establish human TSHR-stably expressing CHO cells. The obtained cells were seeded at 5×10^4 cells/well in a 96-well poly-D-lysine-coated plate, and cultured in an F12 culture medium containing 10% FBS, 400 μg/mL of G418, 50 U/mL of penicillin and 50 μg/mL of streptomycin under conditions of 37° C. and 5% CO2 for 1 day. After the culture medium was removed, the cells were washed twice with 100 μL of an assay buffer solution (Hanks' Balanced Salt Solution containing 20 mM HEPES and 1 mM IBMX) per well. 30 μL of a test compound-containing assay buffer solution was added to the well and incubated at room temperature for 15 minutes. Then, 30 μL of an assay buffer solution containing human TSH (final concentration 50 ng/mL, R&D Systems, Inc.) was added, and incubated at 37° C. for 1 hour. The supernatant was removed, a Lysis and Detection Buffer 2 (Cisbio) was added, and the mixture was incubated at room temperature for 1 hour to prepare a cell lysate. According to the instruction manual of a cAMP Gs HiRange kit (Cisbio), the cell lysate, d2-labeled cAMP and anti-cAMP Europium Cryptate labeled antibodies (Cisbio) were reacted in a 384-well white microplate. Then, a fluorescence intensity ratio (measurement wavelength 665 nm/620 nm) was measured using a multi-plate reader (PHERAstar FSX, BMG LABTECH, Japan). The fluorescence intensity ratio of each sample was converted to a cAMP content using a standard curve. The cAMP content was converted as a percentage of the control value to calculate the cAMP production rate. The CAMP production rate was plotted against the test compound concentration using Prism (Graph Pad Software Inc.) to calculate the IC50 value. The IC50 of each test compound is shown in the above tables. In the tables, IC50<0.5 μM: A, 0.5 μM≤IC50<3.0 μM: B, 3.0 μM≤IC50<30 μM: C are shown.

T1 sequence (P16473 21-764): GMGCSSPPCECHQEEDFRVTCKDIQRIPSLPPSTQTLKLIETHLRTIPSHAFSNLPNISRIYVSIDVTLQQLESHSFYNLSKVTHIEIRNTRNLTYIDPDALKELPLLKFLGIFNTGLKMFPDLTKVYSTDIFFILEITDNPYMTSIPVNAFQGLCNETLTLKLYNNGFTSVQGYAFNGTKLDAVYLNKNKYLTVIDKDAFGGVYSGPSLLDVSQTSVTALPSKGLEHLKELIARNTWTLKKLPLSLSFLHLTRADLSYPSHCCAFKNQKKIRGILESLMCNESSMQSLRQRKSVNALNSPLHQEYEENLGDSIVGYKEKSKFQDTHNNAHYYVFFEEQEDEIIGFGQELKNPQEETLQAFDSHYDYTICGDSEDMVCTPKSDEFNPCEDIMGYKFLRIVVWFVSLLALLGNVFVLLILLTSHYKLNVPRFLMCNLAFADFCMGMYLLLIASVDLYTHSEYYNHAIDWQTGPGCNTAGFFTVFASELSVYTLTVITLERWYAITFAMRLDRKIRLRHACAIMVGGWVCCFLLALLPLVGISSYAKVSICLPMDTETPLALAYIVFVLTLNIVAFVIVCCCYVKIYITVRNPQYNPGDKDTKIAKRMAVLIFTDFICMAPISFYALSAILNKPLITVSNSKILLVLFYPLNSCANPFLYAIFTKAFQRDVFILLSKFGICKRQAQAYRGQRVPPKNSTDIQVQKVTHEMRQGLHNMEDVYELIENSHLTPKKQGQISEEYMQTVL

| SMILES | IC50 |
| --- | --- |
| CN1C(=O)C(CC(N)=O)Cc2cccc(Oc3ccccc3)c21 (centres unmarked) [Example 1, 2-(1-methyl-2-oxo-8-phenoxy-1,2,3,4-tetrahydroquinolin-3-yl)acetamide] | 3000 to 30000 nM |
| CN1C(=O)C(NC(N)=O)Cc2cccc(Oc3ccccc3)c21 (centres unmarked) [Example 2, (1-methyl-2-oxo-8-phenoxy-1,2,3,4-tetrahydroquinolin-3-yl)urea] | 500 to 3000 nM |
| CN1C(=O)C(NC(N)=O)Cc2cccc(Oc3ccccc3F)c21 (centres unmarked) [Example 3, (8-(2-fluorophenoxy)-1-methyl-2-oxo-1,2,3,4-tetrahydroquinolin-3-yl)urea] | 500 to 3000 nM |
| CN1C(=O)C(NC(N)=O)Cc2cccc(Oc3cccc(F)c3)c21 (centres unmarked) [Example 4, (8-(3-fluorophenoxy)-1-methyl-2-oxo-1,2,3,4-tetrahydroquinolin-3-yl)urea] | 3000 to 30000 nM |
| CN1C(=O)C(NC(N)=O)Cc2cccc(Oc3cccc(C(F)(F)F)c3)c21 (centres unmarked) [Example 5, (1-methyl-2-oxo-8-(3-(trifluoromethyl)phenoxy)-1,2,3,4-tetrahydroquinolin-3-yl)urea] | 500 to 3000 nM |
| CN1C(=O)C(NC(N)=O)Cc2cccc(Oc3cccc(Cl)c3)c21 (centres unmarked) [Example 6, (8-(3-chlorophenoxy)-1-methyl-2-oxo-1,2,3,4-tetrahydroquinolin-3-yl)urea] | 500 to 3000 nM |
| CN1C(=O)C(NC(N)=O)Cc2ccc(F)c(Oc3ccccc3)c21 (centres unmarked) [Example 7] | 500 to 3000 nM |
| CN1C(=O)C(NC(N)=O)Cc2ccc(Cl)c(Oc3ccccc3)c21 (centres unmarked) [Example 8] | 500 to 3000 nM |
| CN1C(=O)C(NC(N)=O)Cc2cccc(Oc3ncccc3C(F)(F)F)c21 (centres unmarked) [Example 9, (1-methyl-2-oxo-8-((3-(trifluoromethyl)pyridine-2-yl)oxy)-1,2,3,4-tetrahydroquinolin-3-yl)urea] | 3000 to 30000 nM |
| CN1C(=O)[C@H](NC(N)=O)Cc2cccc(Oc3ccccc3C(F)(F)F)c21 [Example 10, ((3R)-1-methyl-2-oxo-8-(2-(trifluoromethyl)phenoxy)-1,2,3,4-tetrahydroquinolin-3-yl)urea] | < 500 nM |
| COc1ccccc1Oc1cccc2c1N(C)C(=O)[C@H](NC(N)=O)C2 [Example 11, ((3R)-8-(2-methoxyphenoxy)-1-methyl-2-oxo-1,2,3,4-tetrahydroquinolin-3-yl)urea] | 3000 to 30000 nM |
| CN1C(=O)[C@H](NC(N)=O)Cc2cccc(Oc3cccc(C#N)c3)c21 [Example 12, ((3R)-8-(3-cyanophenoxy)-1-methyl-2-oxo-1,2,3,4-tetrahydroquinolin-3-yl)urea] | 3000 to 30000 nM |
| COc1cccc(Oc2cccc3c2N(C)C(=O)[C@H](NC(N)=O)C3)c1 [Example 13] | 500 to 3000 nM |
| CCc1ccccc1Oc1cccc2c1N(C)C(=O)[C@H](NC(N)=O)C2 [Example 14] | 500 to 3000 nM |
| CCc1cccc(Oc2cccc3c2N(C)C(=O)[C@H](NC(N)=O)C3)c1 [Example 15] | 500 to 3000 nM |
| CN1C(=O)[C@H](NC(N)=O)Cc2cccc(Oc3cc(F)ccc3Cl)c21 [Example 16, ((3R)-8-(2-chloro-5-fluorophenoxy)-1-methyl-2-oxo-1,2,3,4-tetrahydroquinolin-3-yl)urea] | < 500 nM |
| CC(C)c1ccccc1Oc1cccc2c1N(C)C(=O)[C@H](NC(N)=O)C2 [Example 17, ((3R)-1-methyl-2-oxo-8-(2-(propan-2-yl)phenoxy)-1,2,3,4-tetrahydroquinolin-3-yl)urea] | 500 to 3000 nM |
| CN1C(=O)[C@H](NC(N)=O)Cc2cccc(Oc3ccccc3C(F)F)c21 [Example 18, ((3R)-8-(2-(difluoromethyl)phenoxy)-1-methyl-2-oxo-1,2,3,4-tetrahydroquinolin-3-yl)urea] | < 500 nM |

| SMILES | IC50 |
| --- | --- |
| CN1C(=O)[C@H](NC(N)=O)Cc2ccc(F)c(Oc3ccccc3Cl)c21 [Example 19, ((3R)-8-(2-chlorophenoxy)-7-fluoro-1-methyl-2-oxo-1,2,3,4-tetrahydroquinolin-3-yl)urea] | < 500 nM |
| CN1C(=O)[C@H](NC(N)=O)Cc2cccc(Oc3ccc(F)cc3Cl)c21 [Example 20, ((3R)-8-(2-chloro-4-fluorophenoxy)-1-methyl-2-oxo-1,2,3,4-tetrahydroquinolin-3-yl)urea] | < 500 nM |
| CN1C(=O)[C@H](NC(N)=O)Cc2cccc(Oc3cc(F)ccc3C(F)(F)F)c21 [Example 21, ((3R)-8-(5-fluoro-2-(trifluoromethyl)phenoxy)-1-methyl-2-oxo-1,2,3,4-tetrahydroquinolin-3-yl)urea] | < 500 nM |
| CN1C(=O)[C@H](NC(N)=O)Cc2ccc(Cl)c(Oc3ccccc3Cl)c21 [Example 22, ((3R)-7-chloro-8-(2-chlorophenoxy)-1-methyl-2-oxo-1,2,3,4-tetrahydroquinolin-3-yl)urea] | < 500 nM |
| CN1C(=O)[C@H](NC(N)=O)Cc2ccc(Cl)c(Oc3ccccc3F)c21 [Example 23, ((3R)-7-chloro-8-(2-fluorophenoxy)-1-methyl-2-oxo-1,2,3,4-tetrahydroquinolin-3-yl)urea] | < 500 nM |
| CN1C(=O)[C@H](NC(N)=O)Cc2cccc(Oc3cccc(OC(F)F)c3)c21 [Example 24, ((3R)-8-(3-(difluoromethoxy)phenoxy)-1-methyl-2-oxo-1,2,3,4-tetrahydroquinolin-3-yl)urea] | 500 to 3000 nM |
| COc1cccc(Oc2c(Cl)ccc3c2N(C)C(=O)[C@H](NC(N)=O)C3)c1 [Example 25] | 500 to 3000 nM |
| CN1C(=O)[C@H](NC(N)=O)Cc2ccc(Cl)c(Oc3cccc(F)c3)c21 [Example 26, ((3R)-7-chloro-8-(3-fluorophenoxy)-1-methyl-2-oxo-1,2,3,4-tetrahydroquinolin-3-yl)urea] | < 500 nM |
| CN1C(=O)[C@H](NC(N)=O)Cc2ccc(Cl)c(Oc3ccccc3C(F)F)c21 [Example 27, ((3R)-7-chloro-8-(2-(difluoromethyl)phenoxy)-1-methyl-2-oxo-1,2,3,4-tetrahydroquinolin-3-yl)urea] | < 500 nM |
| CN1C(=O)[C@H](NC(N)=O)Cc2cccc(Oc3cc(F)ccc3C(F)F)c21 [Example 28] | < 500 nM |
| CN1C(=O)[C@H](NC(N)=O)Cc2cccc(Oc3ccc(F)cc3C(F)F)c21 [Example 29] | < 500 nM |
| COc1ccc(Cl)c(Oc2cccc3c2N(C)C(=O)[C@H](NC(N)=O)C3)c1 [Example 30, ((3R)-8-(2-chloro-5-methoxyphenoxy)-1-methyl-2-oxo-1,2,3,4-tetrahydroquinolin-3-yl)urea] | < 500 nM |
| Cc1ccc2c(c1Oc1ccccc1Cl)N(C)C(=O)[C@H](NC(N)=O)C2 [Example 31, ((3R)-8-(2-chlorophenoxy)-1,7-dimethyl-2-oxo-1,2,3,4-tetrahydroquinolin-3-yl)urea] | < 500 nM |
| CN1C(=O)[C@H](NC(N)=O)Cc2ccc(OCc3ccccc3)c(Oc3ccccc3Cl)c21 [Example 32] | 3000 to 30000 nM |
| CN1C(=O)[C@H](NC(N)=O)Cc2ccc(O)c(Oc3ccccc3Cl)c21 [Example 33, ((3R)-8-(2-chlorophenoxy)-7-hydroxy-1-methyl-2-oxo-1,2,3,4-tetrahydroquinolin-3-yl)urea] | 500 to 3000 nM |
| CCN1C(=O)[C@H](NC(N)=O)Cc2cccc(Oc3ccccc3Cl)c21 [Example 34, ((3R)-8-(2-chlorophenoxy)-1-ethyl-2-oxo-1,2,3,4-tetrahydroquinolin-3-yl)urea] | < 500 nM |
| CN1C(=O)[C@H](NC(N)=O)Cc2cccc(Oc3cc(F)c(F)cc3Cl)c21 [Example 35, ((3R)-8-(2-chloro-4,5-difluorophenoxy)-1-methyl-2-oxo-1,2,3,4-tetrahydroquinolin-3-yl)urea] | < 500 nM |
